Experimental data: US8729020B2, “Methods for the treatment of aortic fibrosis with VIP fragments” (Vectus Biosystems Pty Ltd, priority 2009, dated 2014)

System: Male SHR rats on 2.2% salt diet
Assay: Effect of VIP/VIP fragment infusion on aortic fibrosis in rat model of fibrosis
Assay type: in vivo
Settings: 4 weeks intravenous infusion at 5 pmol/kg/min by osmotic minipump, vs vehicle control, fibrosis quantified as percent surface area
Excerpt: Two animal models of aortic fibrosis were used (animals obtained from Australian Animal Resources, Perth, Western Australia, Australia)
i) Male SHR rats on 2.2% salt diet
In each model the rats were randomised to VIP (1-28), VIP (4-12), VIP (4-16), VIP (4-10), VIP (4-20), VIP (4-24), VIP (10-28), VIP (16-20), VIP (16-24), VIP (16-28), VIP (6-10), VIP (6-12), VIP (6-16), VIP (6-20), VIP (6-24), and VIP (6-28). All peptides were obtained from or synthesised by Auspep, Australia. VIP fragments were dissolved in Hartman's solution for subsequent infusion studies. Commencing at 12 weeks of age, the rats were acclimatized to tail cuff blood pressure measurements and handling for 2 weeks. They then underwent operative insertion of an osmotic minipump (Alzet) which was designed to deliver vehicle alone (Hartman's solution, (Baxter Health Care Corporation)-(Controls)) or VIP, VIP fragment at a dose of 5 pmol/kg/min intravenously.
The infusion was continued for 4 weeks, during which the rats were weighed and their blood pressures measured twice weekly. […]
For quantitation of aortic fibrosis, twenty fields from each aorta were digitized and the amount of fibrosis in each determined as percent surface area using Image-Pro Plus V5.0 software. The mean value for each rat and subsequently for each infusion group was then determined.

His-Ser-Asp-Ala-Val-Phe-Thr-Asp-Asn-Tyr-Thr-Arg-Leu-Arg-Lys-Gln-Met-Ala-Val-Lys-Lys-Tyr-Leu-Asn-Ser-Ile-Leu-Asn (HSDAVFTDNYTRLRKQMAVKKYLNSILN; listed as Homo sapiens) [VIP]
aortic fibrosis (fibrosis within the aortic wall): reductions in aortic fibrosis
